Laboratory results: patent US20230330110A1, “HARD CAPSULE DOSAGE FORM AND USES THEREOF” (EIRGEN PHARMA LTD., priority 2020, published 2023)

Key:
[1] = Stability of calcifediol in acidic dissolution media (Example 4); format: physicochemical; conditions: pH 1.2 medium, 37° C., after 6 hours
Protocol: The stability of calcifediol was tested in acidic dissolution media at ambient/light conditions and also in dark conditions, at 37° C., 20° C., and 10° C., using 30 μg calcifediol extended release capsules.

[2] = Repeated-dose study in SHPT, stage 3 or 4 CKD, vitamin D insufficiency: serum total 25-hydroxyvitamin D; format: in vivo, human; conditions: target of 30 ng/mL; end of second month of treatment (EAP2)
Protocol: (§1) A study is carried out with repeated-dosing of ERC (Rayaldee® (calcifediol) extended-release capsules), IR calcifediol (“IRC”), high-dose cholecalciferol (“HDC”), and paricalcitol plus low-dose cholecalciferol (“PLDC”) in adult patients with secondary hyperparathyroidism (SHPT), stage 3 or 4 chronic kidney disease (CKD) and vitamin D insufficiency.
(§2) This is an open-label study to gather comparative data evaluating the ERC, IR calcifediol, high-dose cholecalciferol, and paricalcitol plus low-dose cholecalciferol. Eligible subjects were randomized 1:1:1:1 to receive 8 weeks of treatment with one of the listed study medications with a sufficient quantity of a non-alcoholic beverage to enable swallowing of the capsules: • 1) ERC capsules 60 μg once daily at bedtime, except on Days 1 and 29 when dosing occurred in the morning before breakfast in the phase 1 unit; • 2) IR calcifediol 266 μg before breakfast on the mornings of Day 1 and Day 29 in the phase 1 unit; • 3) cholecalciferol 300,000 IU (high-dose) before breakfast on the mornings of Day 1 and Day 29 in the phase 1 unit; and • 4) paricalcitol 1 μg (possibly increasing to 2 μg per day at Day 29) plus cholecalciferol 800 IU (low-dose) once daily in the morning before breakfast, except on the mornings of Days 1 and 29 when dosing occurred before breakfast in the phase 1 unit. […]

Plasma iPTH = test: Repeated-dose study (Example 3): plasma iPTH-lowering response; format: in vivo, human; conditions: EAP2
Protocol: as §1, §2

SMILES | degradation [1] | serum total 25-hydroxyvitamin D response rate [2] [%] | plasma iPTH response rate (Plasma iPTH; response = ≥20% reduction from pre-treatment baseline) [%] | plasma iPTH response rate (Plasma iPTH; response = ≥30% reduction from pre-treatment baseline) [%]
C=C1CC[C@H](O)C/C1=C/C=C1\CCC[C@]2(C)[C@@H]([C@H](C)CCCC(C)(C)O)CC[C@@H]12 [calcifediol] | about 90% |  |  | 
C=C1CC[C@H](O)C/C1=C/C=C1\CCC[C@]2(C)[C@@H]([C@H](C)CCCC(C)C)CC[C@@H]12 [HDC, cholecalciferol] |  | 44 | 37.5 | 25.0
